Assay results from US6087119A, “Method for determining the catalytic activity of factor IXa” (Roche Diagnostics GmbH, priority 1996, dated 2000).
pKi: −log10 of the molar value. Read-outs that look alike come from different tables or passages of the source. One block for each molecule: values may come before it.

How the values were obtained:
native FIXa (human) [1] = molecular target: T1, native FIXa (human) (Homo sapiens, UniProt P00740); details: MeSO2-D-HHT-Gly-Arg-pNA
Excerpt: Influence of the pH on the Activity of rFIXa and Native FIXa in the Presence of Ethylene Glycol
1.02 mmol/l MeSO2 -D-HHT-Gly-Arg-pNA, MOC-D-Nle-Gly-Arg-pNA or MeSO2 -D-CHG-Gly-Arg-pNA
0.14 μmol/l native FIXa (human)

rFIXa (human) [2] = molecular target: T2, rFIXa (human) (Homo sapiens, UniProt P00740); test: Influence of known protease inhibitors on the activity of rFIXa; type: biochemical; set-up: coding for the FIX protease domain from amino acid position 181 to 415; Met (ATG start codon) (N); made in house
Protocol: Specific FIXa inhibitors can be identified by the inhibition of FIXa activity. For this purpose the FIXa activity is determined with a substrate of the R-D-Xxx-Gly-Arg-pNA type (Xxx=hydrophobic amino acid) in the absence and presence of the substance to be tested or of a substance mixture and the percentage inhibition is calculated from the quotients. The inhibition constant Ki is determined from the inhibition kinetics. The measurement signal is amplified by the presence of high concentrations of certain alcohols (preferably ethylene glycol).
200 μl buffer (100 mmol/l Tris-HCl, 100 mmol/l NaCl, 5 mmol/l CaCl2, 20-40% alcohol, pH 7-9) the buffer contains the inhibitor at various concentrations […]
The reaction can also be terminated after 5-10 min by stopping with acetic acid (25 μl, 50%), the absorbance is determined at 405 nm against a reagent blank.
Influence of Known Protease Inhibitors on the Activity of rFIXa Using Different pHs, Alcohols and Alcohol Concentrations 42 mmol/l Tris-HCl, pH 7.4 or 8.5 substrate MeSO2 -D-CHG-Gly-Arg-pNA (1.02 mmol/l) […]
inhibitor at stepped concentrations (4.1-163 μmol/l)
Known synthetic inhibitors of the 3-amidinophenylalanine type were used as inhibitors (Sturzebecher et al, J. Enzyme. Inhibition 9 (1995) 87 and WO 92/08709) (1991)). The inhibitory effect was examined at a low and at a high alcohol concentration as an example.

native FIXa (human) [3] = molecular target: T1, native FIXa (human); test: Determination of the dissociation constant Ki according to DIXON, native FIXa; type: biochemical; set-up: 0.14 μmol/l native FIXa (human); details: pH 8.5, 33% ethylene glycol; for 1/V: 0.07 μmol/l native FIXa
Protocol: (§1) Determination of the Dissociation Constant Ki According to the Method of DIXON
(§2) 42 mmol/l Tris-HCl, pH 8.5
(§3) inhibitor in stepped concentrations (0, 20.4 and 40.8 μmol/l) […]
0.07 μmol/l native FIXa (human)
(§4) TIPPS-(3-Am)Phe-iNip-OH was used as the inhibitor and the inhibitory effect was determined as an example for two substrates under optimal conditions (pH 8.5, 33% ethylene glycol).

rFIXa (human) [4] = molecular target: T2, rFIXa (human); test: Determination of the dissociation constant Ki according to DIXON, rFIXa; type: biochemical; set-up: coding for the FIX protease domain from amino acid position 181 to 415; Met (ATG start codon) (N); made in house; details: pH 8.5, 33% ethylene glycol
Protocol: as §1, §2, §3
0.14 μmol/l rFIXa (human) […]
as §4

T1 sequence (P00740 227-461 limits assumed): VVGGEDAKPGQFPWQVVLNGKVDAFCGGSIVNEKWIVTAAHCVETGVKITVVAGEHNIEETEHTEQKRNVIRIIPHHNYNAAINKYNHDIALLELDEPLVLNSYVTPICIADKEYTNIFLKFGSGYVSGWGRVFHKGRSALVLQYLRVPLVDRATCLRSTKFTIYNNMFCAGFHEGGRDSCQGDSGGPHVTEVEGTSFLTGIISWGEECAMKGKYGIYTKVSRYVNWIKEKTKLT
T1 sequence (P00740 47-191 partner limits assumed): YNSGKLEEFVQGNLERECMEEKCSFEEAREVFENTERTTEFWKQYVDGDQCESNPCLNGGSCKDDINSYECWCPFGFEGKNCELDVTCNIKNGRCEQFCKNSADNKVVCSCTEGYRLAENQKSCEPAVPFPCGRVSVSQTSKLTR
T2 sequence (P00740 227-461 limits assumed): as the sequence (P00740 227-461 limits assumed) above
T2 sequence (P00740 131-226 limits assumed): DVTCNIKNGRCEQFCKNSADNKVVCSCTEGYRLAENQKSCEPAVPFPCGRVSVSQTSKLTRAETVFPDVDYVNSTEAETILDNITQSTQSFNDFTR

SMILES: OCCO [Ethylene glycol]
- cleavage rate mA/min (native FIXa (human) [1]; pH 7.0, 25% ethylene glycol): 23.7 mA/min
- cleavage rate mA/min (native FIXa (human) [1]; pH 7.5, 25% ethylene glycol): 63.0 mA/min
- cleavage rate mA/min (native FIXa (human) [1]; pH 8.0, 25% ethylene glycol): 101.0 mA/min
- cleavage rate mA/min (native FIXa (human) [1]; pH 8.25, 25% ethylene glycol): 106.7 mA/min
- cleavage rate mA/min (native FIXa (human) [1]; pH 8.5, 25% ethylene glycol): 115.4 mA/min
- cleavage rate mA/min (native FIXa (human) [1]; pH 8.75, 25% ethylene glycol): 110.9 mA/min
- cleavage rate mA/min (native FIXa (human) [1]; pH 9.0, 25% ethylene glycol): 105.6 mA/min
- cleavage rate mA/min (native FIXa (human) [1]; pH 9.5, 25% ethylene glycol): 100.6 mA/min
- cleavage rate mA/min (native FIXa (human) [1]; pH 10.0, 25% ethylene glycol): 77.2 mA/min

- Inhibition of the activity of factor IXa (in %) (rFIXa (human) [2]; inhibitor 4.1 μmol/l, pH 7.4, 4.1% ethanol, 0.57 μmol/l rFIXa): 89.5%
- Inhibition of the activity of factor IXa (in %) (rFIXa (human) [2]; inhibitor 4.1 μmol/l, pH 7.4, 33% ethylene glycol, 0.057 μmol/l rFIXa): 86.9%
- Inhibition of the activity of factor IXa (in %) (rFIXa (human) [2]; inhibitor 4.1 μmol/l, pH 8.5, 4.1% ethanol, […] rFIXa): 90.6%
- Inhibition of the activity of factor IXa (in %) (rFIXa (human) [2]; inhibitor 4.1 μmol/l, pH 8.5, 33% ethylene glycol, […] rFIXa): 85.6%
- Inhibition of the activity of factor IXa (in %) (rFIXa (human) [2]; inhibitor 8.2 μmol/l, pH 7.4, 4.1% ethanol, 0.57 μmol/l rFIXa): 87.6%
- Inhibition of the activity of factor IXa (in %) (rFIXa (human) [2]; inhibitor 8.2 μmol/l, pH 7.4, 33% ethylene glycol, 0.057 μmol/l rFIXa): 79.4%
- Inhibition of the activity of factor IXa (in %) (rFIXa (human) [2]; inhibitor 8.2 μmol/l, pH 8.5, 4.1% ethanol, […] rFIXa): 85.2%
- Inhibition of the activity of factor IXa (in %) (rFIXa (human) [2]; inhibitor 8.2 μmol/l, pH 8.5, 33% ethylene glycol, […] rFIXa): 72.8%
- Inhibition of the activity of factor IXa (in %) (rFIXa (human) [2]; inhibitor 16.3 μmol/l, pH 7.4, 4.1% ethanol, 0.57 μmol/l rFIXa): 76.2%
- Inhibition of the activity of factor IXa (in %) (rFIXa (human) [2]; inhibitor 16.3 μmol/l, pH 7.4, 33% ethylene glycol, 0.057 μmol/l rFIXa): 61.7%
- Inhibition of the activity of factor IXa (in %) (rFIXa (human) [2]; inhibitor 16.3 μmol/l, pH 8.5, 4.1% ethanol, […] rFIXa): 74.8%
- Inhibition of the activity of factor IXa (in %) (rFIXa (human) [2]; inhibitor 16.3 μmol/l, pH 8.5, 33% ethylene glycol, […] rFIXa): 58.0%
- Inhibition of the activity of factor IXa (in %) (rFIXa (human) [2]; inhibitor 40.8 μmol/l, pH 7.4, 4.1% ethanol, 0.57 μmol/l rFIXa): 55.8%
- Inhibition of the activity of factor IXa (in %) (rFIXa (human) [2]; inhibitor 40.8 μmol/l, pH 7.4, 33% ethylene glycol, 0.057 μmol/l rFIXa): 38.9%
- Inhibition of the activity of factor IXa (in %) (rFIXa (human) [2]; inhibitor 40.8 μmol/l, pH 8.5, 4.1% ethanol, […] rFIXa): 55.2%
- Inhibition of the activity of factor IXa (in %) (rFIXa (human) [2]; inhibitor 40.8 μmol/l, pH 8.5, 33% ethylene glycol, […] rFIXa): 33.6%
- Inhibition of the activity of factor IXa (in %) (rFIXa (human) [2]; inhibitor 81.6 μmol/l, pH 7.4, 4.1% ethanol, 0.57 μmol/l rFIXa): 36.3%
- Inhibition of the activity of factor IXa (in %) (rFIXa (human) [2]; inhibitor 81.6 μmol/l, pH 7.4, 33% ethylene glycol, 0.057 μmol/l rFIXa): 21.2%
- Inhibition of the activity of factor IXa (in %) (rFIXa (human) [2]; inhibitor 81.6 μmol/l, pH 8.5, 4.1% ethanol, […] rFIXa): 35.3%
- Inhibition of the activity of factor IXa (in %) (rFIXa (human) [2]; inhibitor 81.6 μmol/l, pH 8.5, 33% ethylene glycol, […] rFIXa): 20.7%
- Inhibition of the activity of factor IXa (in %) (rFIXa (human) [2]; inhibitor 163 μmol/l, pH 7.4, 4.1% ethanol, 0.57 μmol/l rFIXa): 23.8%
- Inhibition of the activity of factor IXa (in %) (rFIXa (human) [2]; inhibitor 163 μmol/l, pH 7.4, 33% ethylene glycol, 0.057 μmol/l rFIXa): 15.0%
- Inhibition of the activity of factor IXa (in %) (rFIXa (human) [2]; inhibitor 163 μmol/l, pH 8.5, 4.1% ethanol, […] rFIXa): 20.8%
- Inhibition of the activity of factor IXa (in %) (rFIXa (human) [2]; inhibitor 163 μmol/l, pH 8.5, 33% ethylene glycol, […] rFIXa): 15.8%
- 1/V (native FIXa (human) [3]; inhibitor 20.4 μmol/l, MeSO2-D-HHT-Gly-Arg-pNA 0.25 μmol/l): 129 min/mA
- 1/V (native FIXa (human) [3]; inhibitor 20.4 μmol/l, MeSO2-D-HHT-Gly-Arg-pNA 0.51 μmol/l): 77.5 min/mA
- 1/V (native FIXa (human) [3]; inhibitor 20.4 μmol/l, MeSO2-D-HHT-Gly-Arg-pNA 1.02 μmol/l): 29.5 min/mA
- 1/V (native FIXa (human) [3]; inhibitor 40.8 μmol/l, MeSO2-D-HHT-Gly-Arg-pNA 0.25 μmol/l): 255 min/mA
- 1/V (native FIXa (human) [3]; inhibitor 40.8 μmol/l, MeSO2-D-HHT-Gly-Arg-pNA 0.51 μmol/l): 154 min/mA
- 1/V (native FIXa (human) [3]; inhibitor 40.8 μmol/l, MeSO2-D-HHT-Gly-Arg-pNA 1.02 μmol/l): 53.2 min/mA
- pKi (native FIXa (human) [3]; native FIXa, substrate MeSO2-D-HHT-Gly-Arg-pNA): 5.05
- 1/V (rFIXa (human) [4]; inhibitor 20.4 μmol/l, MeSO2-D-CHG-Gly-Arg-pNA 0.25 μmol/l, 0.057 μmol/l rFIXa): 78.1 min/mA
- 1/V (rFIXa (human) [4]; inhibitor 20.4 μmol/l, MeSO2-D-CHG-Gly-Arg-pNA 0.51 μmol/l, 0.057 μmol/l rFIXa): 55.6 min/mA
- 1/V (rFIXa (human) [4]; inhibitor 20.4 μmol/l, MeSO2-D-CHG-Gly-Arg-pNA 1.02 μmol/l, 0.057 μmol/l rFIXa): 23.8 min/mA
- 1/V (rFIXa (human) [4]; inhibitor 20.4 μmol/l, MeSO2-D-HHT-Gly-Arg-pNA 0.25 μmol/l, 0.14 μmol/l rFIXa): 69.4 min/mA
- 1/V (rFIXa (human) [4]; inhibitor 20.4 μmol/l, MeSO2-D-HHT-Gly-Arg-pNA 0.51 μmol/l, 0.14 μmol/l rFIXa): 43.5 min/mA
- 1/V (rFIXa (human) [4]; inhibitor 20.4 μmol/l, MeSO2-D-HHT-Gly-Arg-pNA 1.02 μmol/l, 0.14 μmol/l rFIXa): 16.6 min/mA
- 1/V (rFIXa (human) [4]; inhibitor 40.8 μmol/l, MeSO2-D-CHG-Gly-Arg-pNA 0.25 μmol/l, 0.057 μmol/l rFIXa): 153 min/mA
- 1/V (rFIXa (human) [4]; inhibitor 40.8 μmol/l, MeSO2-D-CHG-Gly-Arg-pNA 0.51 μmol/l, 0.057 μmol/l rFIXa): 109 min/mA
- 1/V (rFIXa (human) [4]; inhibitor 40.8 μmol/l, MeSO2-D-CHG-Gly-Arg-pNA 1.02 μmol/l, 0.057 μmol/l rFIXa): 44.6 min/mA
- 1/V (rFIXa (human) [4]; inhibitor 40.8 μmol/l, MeSO2-D-HHT-Gly-Arg-pNA 0.25 μmol/l, 0.14 μmol/l rFIXa): 137 min/mA
- 1/V (rFIXa (human) [4]; inhibitor 40.8 μmol/l, MeSO2-D-HHT-Gly-Arg-pNA 0.51 μmol/l, 0.14 μmol/l rFIXa): 90.9 min/mA
- 1/V (rFIXa (human) [4]; inhibitor 40.8 μmol/l, MeSO2-D-HHT-Gly-Arg-pNA 1.02 μmol/l, 0.14 μmol/l rFIXa): 31.2 min/mA
- pKi (rFIXa (human) [4]; rFIXa, substrate MeSO2-D-CHG-Gly-Arg-pNA): 4.80
- pKi (rFIXa (human) [4]; recombinant FIXa, substrate MeSO2-D-HHT-Gly-Arg-pNA): 4.92
SMILES: CC(C)c1cc(C(C)C)c(S(=O)(=O)NC(Cc2cccc(C(=N)N)c2)C(=O)N2CCC(C(=O)O)CC2)c(C(C)C)c1 (stereo not drawn) [TIPPS-(3-Am)Phe-iNip-OH, Nα-(2,4,6-triisopropylbenzenesulfonyl)-3-amidino-(D,L)-phenylalanine-isonipecotic acid]
